Target: T1, xanthine oxidase (XO) (Bos taurus, UniProt P80457)
T1 construct: gene XDH
Assay: xanthine oxidase inhibition assay with Lineweaver-Burk kinetics (IC50 […]; KI […])
Assay type: biochemical

T1 sequence (P80457 2-1332): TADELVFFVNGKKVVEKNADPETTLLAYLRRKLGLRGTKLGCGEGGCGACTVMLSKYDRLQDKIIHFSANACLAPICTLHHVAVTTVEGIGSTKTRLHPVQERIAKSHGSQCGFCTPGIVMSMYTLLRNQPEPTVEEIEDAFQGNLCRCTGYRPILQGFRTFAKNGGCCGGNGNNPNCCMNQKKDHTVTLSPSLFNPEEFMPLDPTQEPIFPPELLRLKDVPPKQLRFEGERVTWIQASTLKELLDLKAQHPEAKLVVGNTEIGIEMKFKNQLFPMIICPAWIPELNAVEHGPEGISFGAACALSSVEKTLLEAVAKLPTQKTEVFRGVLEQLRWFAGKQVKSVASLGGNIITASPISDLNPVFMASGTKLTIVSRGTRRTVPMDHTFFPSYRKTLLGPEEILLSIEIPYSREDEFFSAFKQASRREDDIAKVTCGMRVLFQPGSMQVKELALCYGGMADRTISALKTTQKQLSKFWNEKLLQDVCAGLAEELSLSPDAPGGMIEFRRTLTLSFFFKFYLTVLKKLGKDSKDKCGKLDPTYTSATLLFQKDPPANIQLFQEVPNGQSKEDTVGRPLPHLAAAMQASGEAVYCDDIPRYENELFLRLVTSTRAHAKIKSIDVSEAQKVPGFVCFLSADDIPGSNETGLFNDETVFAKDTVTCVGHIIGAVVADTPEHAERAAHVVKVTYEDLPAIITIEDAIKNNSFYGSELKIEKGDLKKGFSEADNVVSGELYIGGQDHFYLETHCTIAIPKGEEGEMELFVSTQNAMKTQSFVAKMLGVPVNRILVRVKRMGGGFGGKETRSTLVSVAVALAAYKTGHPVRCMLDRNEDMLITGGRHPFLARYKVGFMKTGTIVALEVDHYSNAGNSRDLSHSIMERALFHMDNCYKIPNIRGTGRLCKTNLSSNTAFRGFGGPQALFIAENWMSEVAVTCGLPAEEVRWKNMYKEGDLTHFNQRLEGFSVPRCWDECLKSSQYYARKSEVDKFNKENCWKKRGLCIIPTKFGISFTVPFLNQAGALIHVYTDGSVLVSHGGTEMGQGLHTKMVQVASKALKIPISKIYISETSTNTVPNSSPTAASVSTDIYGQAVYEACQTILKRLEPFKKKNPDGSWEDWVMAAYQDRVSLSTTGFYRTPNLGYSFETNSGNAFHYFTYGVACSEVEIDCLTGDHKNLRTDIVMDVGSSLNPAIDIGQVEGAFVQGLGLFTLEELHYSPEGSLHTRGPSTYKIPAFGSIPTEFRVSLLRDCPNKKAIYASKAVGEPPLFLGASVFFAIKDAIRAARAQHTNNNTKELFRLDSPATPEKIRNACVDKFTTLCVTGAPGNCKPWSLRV

Q: With COc1cc(-c2cc(=O)c3c(O)cc(O)cc3o2)cc(OC)c1O [tricin] as the compound, how does the Ki read?
A: The Ki was 0.47 µM.
